Assays:
[1] = Oral absorption / pharmacokinetics of Compound (I) formulations in cynomolgus monkeys; type: in vivo; conditions: cyno monkeys
Protocol: An aqueous suspension of […] was prepared at 10% solid content. […] Six enteric coated tablets were encapsulated in a size #00 hard gelatin capsule for the cyno PK study. Each cyno monkey was dosed with 2 capsules (12 enteric coated tablets). […] The mean exposure is shown in FIG. 1 with error bars showing the standard deviation.

[2] = Dog pK study (Example 5E), effect of sodium decanoate amount and number of tablets, 100 mg dose; design: species or system dogs; conditions: in vivo, iv, 10 mg
Protocol: Blood samples were withdrawn over a period of 72 hours. […] Error bars describe standard deviation. […] Decreasing the amount of sodium decanoate decreased PK exposure at 330 mg of sodium decanoate. […] Table 12 summarizes all of the PK data for all the formulations tested in Example 5.

[3] = Dog pK study (Example 4), 20 mg dose; design: species or system dogs; conditions: in vivo, iv, 10 mg
[4] = 0.1 mg/kg IV (0.5 mg), reference

AUC0-24 h (nM · h) Mean ([1]; 0.1 mg/kg IV (0.5 mg)): 47.61351 µM·h
AUCinf (nM · h) Mean ([1]; 0.1 mg/kg IV (0.5 mg)): 51.96595 µM·h
Cmax ([1]; 0.1 mg/kg IV (0.5 mg)): 798 nM
BA (%) Mean [1, 4]: 100.00%
BA (%) using AUCInf Mean [1, 4]: 100.00%
plasma concentration of Compound (I) over time ([1]; oral, 12 mg, formulated as in Example 1, 72 hours): good plasma concentration
AUCinf (ng · h/mL) Mean [2]: 1198.53803 µg·h/mL
Cmax (ng/mL) Mean [2]: 25466.29 ng/mL
AUCinf (ng · h/mL) Mean [3]: 1198.53803 µg·h/mL
Cmax (ng/mL) Mean [3]: 25466.29 ng/mL
SMILES: CCCC[C@H]1C(=O)N(C)[C@@H](CCCC)C(=O)N[C@@H](CC(C)C)C(=O)N[C@H](C(=O)NCC(=O)N[C@@H](Cc2cn(CCOCCOCCCOCCCOCCOCCOCCOCCOCCOCCOCCOCCNC(=O)CC[C@H](NC(=O)CCCCCCCCCCCCCCCCC(=O)O)C(=O)O)nn2)C(=O)O)CSCC(=O)N[C@@H](Cc2ccc(O)cc2)C(=O)N(C)[C@@H](C)C(=O)N[C@@H](CC(N)=O)C(=O)N2CCC[C@H]2C(=O)N[C@@H](CN)C(=O)N[C@@H](CC(C)C)C(=O)N2C[C@H](O)C[C@H]2C(=O)N[C@@H](Cc2c[nH]c3ccccc23)C(=O)N[C@@H](CCN)C(=O)N[C@@H](Cc2cn(CC(=O)O)c3ccccc23)C(=O)N1C [Compound (I)]

Reference: US20260263552A1, “PHARMACEUTICAL COMPOSITIONS FOR IMPROVING ORAL BIOAVAILABILITY” (priority 2023, published 2026)
